Results taken from patent US20120328719A1, “EXTERNAL PREPARATION FOR SKIN” (Shiseido Company, Ltd., priority 2010, published 2012).

Experiments:
[1] = Measurement of moisture transpiration rate constants (filter paper weight loss); assay type: physicochemical; conditions: 10 μl on filter paper, slope 3 to 8 min, FIG. 3
Method: Heparan sulfate (n=5), chondroitin sulfate A (n=5), chondroitin sulfate B (n=5), keratan sulfate (n=5) and hyaluronic acid (n=5) were dissolved in MilliQ to prepare 0.2% aqueous solutions of each, and 5.0% glycerin (n=5) and MilliQ were prepared for use as a comparative sample (n refers to the respective number of samples). Filter paper cut to a size of 2 cm×2 cm was placed on a balance, and the filter paper was impregnated with 10 μl of each solution followed by measuring the weight of the filter paper for 8 minutes at 1 minute intervals. The weight (mg) of the filter paper from 3 to 8 minutes after the start of measurement was plotted on the vertical axis, elapsed time (min) was plotted on the horizontal axis, and the slope (mg/min) of the resulting line was calculated as the moisture transpiration rate constant (FIG. 3).

[2] = system: skin model (EFT-400, MatTek Corp.); assay: Immunostaining of skin models; assay type: cell-based; conditions: skin model sections, vs control group; for expression level of heparan sulfate (immunostaining): days 4 and 8 of culturing, FIG. 4E-4H; for expression level of loricrin (immunostaining): FIG. 5A-5D; for expression level of filaggrin (immunostaining): FIG. 5E-5H
Method: A skin model (EFT-400, MatTek Corp.) was cultured in a special-purpose medium (EFT-400-ASY, MatTek Corp.). Dimethylsulfoxide (DMSO) and ethanol were added to the special-purpose medium to a final concentration of 0.1% for use as a control group, 50 mM 1-[4-(1H-benzoimidazol-2-yl)-phenyl]-3-[4-(1H-benzoimidazol-2-yl)-phenyl]urea (solvent: DMSO) were added to the special-purpose medium to a final concentration of 50 μM for use as a heparanase inhibitor group, 10 mM N-hydroxy-2-[[(4-methoxyphenyl)sulfonyl](3-picolyl)amino]-3-methylbutaneamide hydrochloride (CGS27023A, solvent: ethanol) were added to the special-purpose medium to a final concentration of 10 μM for use as an MMP inhibitor group, and 50 mM 1-[4-(1H-benzoimidazol-2-yl)-phenyl]-3-[4-(1H-benzoimidazol-2-yl)-phenyl]urea (solvent: DMSO) and 10 mM CGS27023A (solvent: ethanol) were added to the special-purpose medium to final concentrations of 50 μM and 10 μM, respectively, for use as a combination heparanase inhibitor+metalloproteinase (MMP) inhibitor group. The medium was replaced daily at 2 mL/well, and the skin model was recovered and used for experimentation on days 4 and 8 of culturing. In addition, during replacement of the medium, all of the culture fluid was collected and stored at −80° C.° for use in the experiments described below.
The skin models following culturing were cut in half with a scalpel and placed in acetone at 4° C. followed by allowing to stand undisturbed for 48 hours at 4° C. The solution was replaced with acetone, methyl benzoate and xylene in that order followed by embedding in paraffin to prepare paraffin blocks in accordance with the AMeX method. Tissue sections having a thickness of 3 μm were prepared followed by immunostaining with perlecan (FIGS. 4A to 4D), heparan sulfate (FIGS. 4E to 4H), loricrin (FIGS. 5A to 5D), filaggrin (FIGS. 5E to 5H) and Ki67 (FIG. 6) on days 4 and 8 of culturing. […] In addition, in the groups containing heparanase inhibitor, the presence of proliferative cells positive for Ki67 was clearly determined to be maintained.

[3] = system: skin model (EFT-400, MatTek Corp.); assay: Measurement of hyaluronic acid levels in cultured skin model; assay type: cell-based; conditions: heparanase inhibitor 50 μM, CGS27023A 10 μM, FIG. 1B
Method: A skin model (EFT-400, MatTek Corp.) was cultured in a special-purpose medium (EFT-400-ASY, MatTek Corp.). […]
Measurement of hyaluronic acid levels was carried out on the aforementioned cultured control group (n=5), MMP inhibitor group (n=5), heparanase inhibitor group (n=5) and combination MMP inhibitor+heparanase inhibitor group (n=5) (n refers to the number of each skin model used in testing). […] The culture supernatants stored at −80° C. were then thawed and hyaluronic acid levels in these solutions were then measured with a hyaluronic acid assay kit (Seikagaku Corp.).

Compound | moisture transpiration rate constant ([1]; 5.0% glycerin comparative sample) | expression level of heparan sulfate (immunostaining) [2] | expression level of loricrin (immunostaining) [2] | expression level of filaggrin (immunostaining) [2] | hyaluronic acid levels in culture supernatant [3] | moisture transpiration rate constant ([1]; 0.2% aqueous solution)
OCC(O)CO [glycerin] | roughly the same |  |  |  |  | 
COc1ccc(S(=O)(=O)N(Cc2cccnc2)C(C(=O)NO)C(C)C)cc1.Cl (stereo not drawn) [MMP inhibitor, N-hydroxy-2-[[(4-methoxyphenyl)sulfonyl](3-picolyl)amino]-3-methylbutaneamide hydrochloride] |  | increased | increased | increased |  | 
O=C(Nc1ccc(-c2nc3ccccc3[nH]2)cc1)Nc1ccc(-c2nc3ccccc3[nH]2)cc1 [heparanase inhibitor, 1-[4-(1H-benzoimidazol-2-yl)-phenyl]-3-[4-(1H-benzoimidazol-2-yl)-phenyl]urea] |  | increased | increased | increased | significant decreases | 
hyaluronic acid |  |  |  |  |  | remarkably low
